Reference: PMC3156297 (2011)

Biological target: T1, soluble epoxide hydrolase (sEH) (Homo sapiens, UniProt P34913)
T1 sequence (P34913 1-555): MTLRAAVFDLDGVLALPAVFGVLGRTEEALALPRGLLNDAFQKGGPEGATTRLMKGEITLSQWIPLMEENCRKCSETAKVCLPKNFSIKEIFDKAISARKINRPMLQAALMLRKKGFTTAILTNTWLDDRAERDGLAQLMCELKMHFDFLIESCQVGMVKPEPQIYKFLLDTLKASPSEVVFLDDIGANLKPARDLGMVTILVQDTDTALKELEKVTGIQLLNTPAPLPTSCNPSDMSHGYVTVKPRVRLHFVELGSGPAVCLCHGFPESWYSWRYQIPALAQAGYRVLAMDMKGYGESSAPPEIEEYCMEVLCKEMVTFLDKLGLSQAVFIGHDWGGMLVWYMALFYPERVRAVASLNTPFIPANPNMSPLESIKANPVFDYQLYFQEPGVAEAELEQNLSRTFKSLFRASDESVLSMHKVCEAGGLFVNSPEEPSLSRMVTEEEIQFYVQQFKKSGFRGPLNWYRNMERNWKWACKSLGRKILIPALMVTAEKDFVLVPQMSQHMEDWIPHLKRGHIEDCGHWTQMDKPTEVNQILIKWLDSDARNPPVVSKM
Experiment: recombinant enzyme inhibition
Format: biochemical

- Ki: 96 nM
Compound: O=C(Nc1ccc(Cl)cc1)Nc1ccc(Cl)c(Cl)c1 [TCC, 3,4,4′-trichlorocarbanilide]
